Source: ChEMBL document CHEMBL1201862, “PubChem BioAssay data set” (2004)
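Following 48 hours of exposure in 96-well plates, responses at five concentrations were used to interpolate endpoints linearly. At the GI50, growth is halved.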 Active and inactive are the calls of the source. No stated cut-off is given here; in the data, active = GI50 up to about 1.1 µM and inactive = higher.

Legend:
Test in all cases: inhibition of tumour cell growth, NCI panel, 48 h
[1] = test system: DMS-273
[2] = test system: SW-620
[3] = test system: SK-MEL-28
[4] = test system: HOP-62
[5] = test system: SF-268
[6] = test system: HL-60
[7] = test system: SK-OV-3
[8] = test system: U-251
[9] = test system: SR
[10] = test system: Malme-3M
[11] = test system: 786-0
[12] = test system: HOP-18
[13] = test system: SNB-75
[14] = test system: HOP-92
[15] = test system: RXF 393
[16] = test system: XF498
[17] = test system: OVCAR-4
[18] = test system: SF-539
[19] = test system: M19-MEL
[20] = test system: TK-10
[21] = test system: HT-29
[22] = test system: KM12
[23] = test system: UO-31
[24] = test system: UACC-257
[25] = test system: OVCAR-3
[26] = test system: A549
[27] = test system: EKVX
[28] = test system: HCT-15
[29] = test system: CAKI-1
[30] = test system: M14
[31] = test system: ACHN
[32] = test system: LXFL 529
[33] = test system: LOX IMVI
[34] = test system: SF-295
[35] = test system: NCI-H23
[36] = test system: OVCAR-8
[37] = test system: NCI-H460
[38] = test system: NCI-H522
[39] = test system: NCI-H226
[40] = test system: COLO 205
[41] = test system: DLD-1
[42] = test system: SNB-78
[43] = test system: SK-MEL-5
[44] = test system: IGROV-1
[45] = test system: DMS-114
[46] = test system: K562
[47] = test system: SN12C
[48] = test system: OVCAR-5
[49] = test system: CCRF-CEM
[50] = test system: SNB-19
[51] = test system: KM-20L2
[52] = test system: SK-MEL-2
[53] = test system: HCC 2998
[54] = test system: A498
[55] = test system: UACC-62
[56] = test system: HCT-116
[57] = test system: MOLT-4
[58] = test system: RPMI-8226
[59] = test system: NCI/ADR-RES
[60] = test system: Hs-578T
[61] = test system: DU-145
[62] = test system: MDA-MB-231
[63] = test system: MDA-MB-435
[64] = test system: MCF7
[65] = test system: PC-3
[66] = test system: MDA-N
[67] = test system: T47D

## Cc1c(Cl)cccc1NC(=O)C(=O)c1c(O)c2ccc(O)cc2oc1=O
[1]
  GI50: > 100 µM (inactive)
[2]
  GI50: > 100 µM (inactive)
[3]
  GI50: > 100 µM (inactive)
[4]
  GI50: > 100 µM (inactive)
[5]
  GI50: > 100 µM (inactive)
[6]
  GI50: > 100 µM (inactive)
[7]
  GI50: > 100 µM (inactive)
[8]
  GI50: > 100 µM (inactive)
[9]
  GI50: > 100 µM (inactive)
[10]
  GI50: > 100 µM (inactive)
[11]
  GI50: > 100 µM (inactive)
[12]
  GI50: > 100 µM (inactive)
[13]
  GI50: > 100 µM (inactive)
[14]
  GI50: > 100 µM (inactive)
[15]
  GI50: > 100 µM (inactive)
[16]
  GI50: > 100 µM (inactive)
[17]
  GI50: > 100 µM (inactive)
[18]
  GI50: > 100 µM (inactive)
[19]
  GI50: > 100 µM (inactive)
[20]
  GI50: > 100 µM (inactive)
[21]
  GI50: > 100 µM (inactive)
[22]
  GI50: > 100 µM (inactive)
[23]
  GI50: > 100 µM (inactive)
[24]
  GI50: > 100 µM (inactive)
[25]
  GI50: > 100 µM (inactive)
[26]
  GI50: > 100 µM (inactive)
[27]
  GI50: > 100 µM (inactive)
[28]
  GI50: > 100 µM
[29]
  GI50: > 100 µM (inactive)
[30]
  GI50: > 100 µM (inactive)
[31]
  GI50: > 100 µM (inactive)
[32]
  GI50: > 100 µM (inactive)
[33]
  GI50: > 100 µM (inactive)
[34]
  GI50: > 100 µM (inactive)
[35]
  GI50: > 100 µM (inactive)
[36]
  GI50: > 100 µM (inactive)
[37]
  GI50: > 100 µM (inactive)
[38]
  GI50: > 100 µM (inactive)
[39]
  GI50: > 100 µM (inactive)
[40]
  GI50: > 100 µM (inactive)
[41]
  GI50: > 100 µM (inactive)
[42]
  GI50: > 100 µM (inactive)
[43]
  GI50: > 100 µM (inactive)
[44]
  GI50: > 100 µM (inactive)
[45]
  GI50: > 100 µM (inactive)
[46]
  GI50: > 100 µM (inactive)
[47]
  GI50: > 100 µM (inactive)
[48]
  GI50: > 100 µM (inactive)
[49]
  GI50: > 100 µM (inactive)
[50]
  GI50: > 100 µM (inactive)
[51]
  GI50: > 100 µM (inactive)
[52]
  GI50: > 100 µM (inactive)
[53]
  GI50: > 100 µM (inactive)
[54]
  GI50: > 100 µM (inactive)
[55]
  GI50: > 100 µM (inactive)
[56]
  GI50: > 100 µM (inactive)
[57]
  GI50: > 100 µM (inactive)

## CC1=[N+]([O-])c2ccccc2C(=O)C1=O
[1]
  GI50: > 100 µM (inactive)
[2]
  GI50: 89.5 µM (inactive)
[3]
  GI50: > 100 µM (inactive)
[4]
  GI50: > 100 µM (inactive)
[5]
  GI50: 42.2 µM (inactive)
[6]
  GI50: 40.3 µM (inactive)
[7]
  GI50: > 100 µM (inactive)
[8]
  GI50: 99.8 µM (inactive)
[10]
  GI50: > 100 µM (inactive)
[11]
  GI50: > 100 µM (inactive)
[12]
  GI50: > 100 µM (inactive)
[13]
  GI50: > 100 µM (inactive)
[14]
  GI50: 69 µM (inactive)
[15]
  GI50: 81.1 µM (inactive)
[16]
  GI50: > 100 µM (inactive)
[17]
  GI50: 68.5 µM (inactive)
[18]
  GI50: > 100 µM (inactive)
[19]
  GI50: 44.8 µM (inactive)
[20]
  GI50: > 100 µM (inactive)
[21]
  GI50: > 100 µM (inactive)
[22]
  GI50: > 100 µM (inactive)
[23]
  GI50: > 100 µM (inactive)
[24]
  GI50: 65.8 µM (inactive)
[25]
  GI50: 29.2 µM (inactive)
[26]
  GI50: > 100 µM (inactive)
[27]
  GI50: > 100 µM (inactive)
[28]
  GI50: 56.4 µM
[29]
  GI50: > 100 µM (inactive)
[30]
  GI50: > 100 µM (inactive)
[31]
  GI50: > 100 µM (inactive)
[32]
  GI50: > 100 µM (inactive)
[58]
  GI50: 35.5 µM (inactive)
[33]
  GI50: 41 µM (inactive)
[34]
  GI50: > 100 µM (inactive)
[35]
  GI50: 92.9 µM (inactive)
[36]
  GI50: > 100 µM (inactive)
[37]
  GI50: 61 µM (inactive)
[38]
  GI50: 23.3 µM (inactive)
[39]
  GI50: 15.8 µM (inactive)
[40]
  GI50: > 100 µM (inactive)
[41]
  GI50: > 100 µM (inactive)
[42]
  GI50: > 100 µM (inactive)
[43]
  GI50: > 100 µM (inactive)
[44]
  GI50: > 100 µM (inactive)
[45]
  GI50: > 100 µM (inactive)
[46]
  GI50: 29.1 µM (inactive)
[47]
  GI50: > 100 µM (inactive)
[48]
  GI50: > 100 µM (inactive)
[49]
  GI50: 25.9 µM (inactive)
[50]
  GI50: 93.8 µM (inactive)
[51]
  GI50: > 100 µM (inactive)
[52]
  GI50: > 100 µM (inactive)
[53]
  GI50: > 100 µM (inactive)
[54]
  GI50: > 100 µM (inactive)
[55]
  GI50: 55.6 µM (inactive)
[56]
  GI50: 48 µM (inactive)
[57]
  GI50: 43.2 µM (inactive)

## C/C=C1\NC(=O)[C@H]2CSSCCC=C[C@H](CC(=O)N[C@H](C(C)C)C(=O)N2)OC(=O)[C@H](C(C)C)NC1=O
[1]
  GI50: 0.00673 µM (active)
[2]
  GI50: 0.000153 µM (active)
[3]
  GI50: 9.98e-05 µM (active)
[4]
  GI50: 9.79e-05 µM (active)
[5]
  GI50: 0.000318 µM (active)
[12]
  GI50: 0.00412 µM (active)
[59]
  GI50: 0.0619 µM (active)
[13]
  GI50: 0.000207 µM (active)
[14]
  GI50: 0.000366 µM (active)
[15]
  GI50: 0.0008 µM (active)
[16]
  GI50: 0.00285 µM (active)
[60]
  GI50: 0.0361 nM (active)
[61]
  GI50: 0.0455 nM (active)
[17]
  GI50: 0.00201 µM (active)
[18]
  GI50: 6.98e-05 µM (active)
[19]
  GI50: 0.00252 µM (active)
[62]
  GI50: 0.0243 nM (active)
[20]
  GI50: 0.000226 µM (active)
[21]
  GI50: 0.000131 µM (active)
[22]
  GI50: 0.000154 µM (active)
[63]
  GI50: 10 pM (active)
[23]
  GI50: 0.00731 µM (active)
[25]
  GI50: 0.000412 µM (active)
[26]
  GI50: 0.000148 µM (active)
[27]
  GI50: 0.00102 µM (active)
[28]
  GI50: 0.0331 µM
[29]
  GI50: 0.00159 µM (active)
[30]
  GI50: 0.000299 µM (active)
[31]
  GI50: 0.00452 µM (active)
[58]
  GI50: 0.000147 µM (active)
[34]
  GI50: 0.000117 µM (active)
[35]
  GI50: 0.000125 µM (active)
[36]
  GI50: 0.000255 µM (active)
[64]
  GI50: 0.0222 nM (active)
[37]
  GI50: 0.00124 µM (active)
[39]
  GI50: 0.000123 µM (active)
[65]
  GI50: 0.0488 nM (active)
[41]
  GI50: 0.0217 µM (active)
[42]
  GI50: 0.0446 µM (active)
[43]
  GI50: 6.65e-05 µM (active)
[45]
  GI50: 0.00291 µM (active)
[47]
  GI50: 0.000174 µM (active)
[49]
  GI50: 0.000117 µM (active)
[50]
  GI50: 0.000116 µM (active)
[51]
  GI50: 0.00288 µM (active)
[53]
  GI50: < 0.01 µM (active)
[66]
  GI50: 0.0217 nM (active)
[54]
  GI50: 0.00015 µM (active)
[55]
  GI50: 0.000188 µM (active)
[56]
  GI50: 9.2e-05 µM (active)
[57]
  GI50: 0.000134 µM (active)
[67]
  GI50: 0.0439 nM (active)
